In PubChem BioAssay (NCI):
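Each compound was tested at five concentrations against cells in 96-well plates for 48 hours. TGI denotes the concentration required for complete inhibition of growth.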 Active and inactive are the calls of the source. No stated cut-off is given here; in the data, active means GI50 below about 0.43 µM; inactive means the rest.

Assays:
Assay in all cases: NCI tumour cell line growth inhibition, 48 h
HCT-15 colon = system: HCT-15 colon
A549 NSCLC = system: A549 NSCLC
SNB-19 CNS = system: SNB-19 CNS
A498 renal = system: A498 renal
CAKI-1 renal = system: CAKI-1 renal
UACC-62 melanoma = system: UACC-62 melanoma
SK-MEL-28 melanoma = system: SK-MEL-28 melanoma
SR leukemia = system: SR leukemia
NCI-H460 lung = system: NCI-H460 lung
UACC-257 melanoma = system: UACC-257 melanoma
HT29 colon = system: HT29 colon
SNB-75 CNS = system: SNB-75 CNS
HS 578T breast = system: HS 578T breast
ACHN renal = system: ACHN renal
MDA-N = system: MDA-N
MCF7 breast = system: MCF7 breast
MDA-MB-231 breast = system: MDA-MB-231 breast
SN12C renal = system: SN12C renal
LOX IMVI melanoma = system: LOX IMVI melanoma
HL-60(TB) leukemia = system: HL-60(TB) leukemia
M14 melanoma = system: M14 melanoma
SW-620 colon = system: SW-620 colon
HCC-2998 colon = system: HCC-2998 colon
BT-549 breast = system: BT-549 breast
NCI-H522 lung = system: NCI-H522 lung
UO-31 renal = system: UO-31 renal
CCRF-CEM leukemia = system: CCRF-CEM leukemia
SF-268 CNS = system: SF-268 CNS
SK-MEL-5 melanoma = system: SK-MEL-5 melanoma
T-47D breast = system: T-47D breast
COLO 205 colon = system: COLO 205 colon
DU-145 prostate = system: DU-145 prostate
SF-539 CNS = system: SF-539 CNS
SK-OV-3 ovarian = system: SK-OV-3 ovarian
NCI-H226 lung = system: NCI-H226 lung
RPMI-8226 leukemia = system: RPMI-8226 leukemia
KM12 colon = system: KM12 colon
HCT-116 colon = system: HCT-116 colon
MDA-MB-435 = system: MDA-MB-435
TK-10 renal = system: TK-10 renal
SF-295 CNS = system: SF-295 CNS
IGROV1 ovarian = system: IGROV1 ovarian
K-562 leukemia = system: K-562 leukemia
PC-3 prostate = system: PC-3 prostate
HOP-62 NSCLC = system: HOP-62 NSCLC
MOLT-4 leukemia = system: MOLT-4 leukemia
NCI-H23 lung = system: NCI-H23 lung
OVCAR-8 ovarian = system: OVCAR-8 ovarian
EKVX NSCLC = system: EKVX NSCLC
786-0 renal = system: 786-0 renal
MALME-3M melanoma = system: MALME-3M melanoma
HOP-92 NSCLC = system: HOP-92 NSCLC
OVCAR-4 ovarian = system: OVCAR-4 ovarian
OVCAR-5 ovarian = system: OVCAR-5 ovarian
RXF 393 renal = system: RXF 393 renal
OVCAR-3 ovarian = system: OVCAR-3 ovarian
U251 CNS = system: U251 CNS
NCI/ADR-RES ovarian = system: NCI/ADR-RES ovarian
SK-MEL-2 melanoma = system: SK-MEL-2 melanoma

Measured: TGI

Cc1nn(C(=O)Cc2ccccc2)c2c1C(c1ccc3ccccc3c1O)SC(N)=N2 (stereo not drawn)
64.2 µM: CCRF-CEM leukemia
not listed: 786-0 renal | MALME-3M melanoma | HOP-92 NSCLC | OVCAR-4 ovarian | OVCAR-5 ovarian | RXF 393 renal | OVCAR-3 ovarian | U251 CNS | NCI/ADR-RES ovarian | SK-MEL-2 melanoma
> 100 µM: all other assays above

[N-]=[N+]=NC1=CC(=O)c2cccc3cccc1c23
27.8 µM: SK-MEL-5 melanoma
38.9 µM: A498 renal
66.7 µM: HOP-92 NSCLC
42.1 µM: UACC-62 melanoma
88.2 µM: TK-10 renal
51.8 µM: IGROV1 ovarian
84.3 µM: SF-295 CNS
82.8 µM: M14 melanoma
35.6 µM: SK-OV-3 ovarian
48.1 µM: HOP-62 NSCLC
69.8 µM: HS 578T breast
31 µM: SNB-75 CNS
88 µM: SF-539 CNS
63 µM: BT-549 breast
72.2 µM: UACC-257 melanoma
34.5 µM: RXF 393 renal
82 µM: NCI-H23 lung
71 µM: U251 CNS
not listed: HCT-15 colon | NCI-H522 lung | NCI-H226 lung | OVCAR-8 ovarian | EKVX NSCLC | NCI/ADR-RES ovarian | SK-MEL-2 melanoma
> 100 µM: all other assays above

CCP(=S)(CC)CCl
not listed: A498 renal | UACC-62 melanoma | BT-549 breast | SF-268 CNS | SF-539 CNS | KM12 colon | MDA-MB-435 | MOLT-4 leukemia | EKVX NSCLC | 786-0 renal | MALME-3M melanoma | RXF 393 renal
> 100 µM: all other assays above

C[C@H](N)C(O)C/C=C\C/C=C\C/C=C\C/C=C\C/C=C\C/C=C\CCCCCCC(O)[C@H](C)N (stereo partly drawn)
not listed: A549 NSCLC | SK-MEL-5 melanoma | IGROV1 ovarian | HOP-92 NSCLC | NCI/ADR-RES ovarian
inactive: all other assays above

O=[N+]([O-])c1ccc2nc3n(c2c1)C(c1c(F)cccc1F)SC3 (stereo not drawn)
> 10 µM: A549 NSCLC | SK-MEL-5 melanoma | T-47D breast | RPMI-8226 leukemia | K-562 leukemia | OVCAR-8 ovarian
not listed: HCT-15 colon | CAKI-1 renal | UACC-62 melanoma | SNB-75 CNS | HL-60(TB) leukemia | M14 melanoma | HCC-2998 colon | BT-549 breast | NCI-H522 lung | UO-31 renal | SF-268 CNS | COLO 205 colon | SF-539 CNS | MDA-MB-435 | HOP-92 NSCLC | OVCAR-4 ovarian | RXF 393 renal | SK-MEL-2 melanoma
> 100 µM: all other assays above
